Tests used:
[1] = system: thrombin generation in FVIII-deficient plasma; assay: Thrombin generation (ETP) assay in FVIII-deficient plasma; type: biochemical, human; conditions: increasing concentrations of ^superFVa alone
Procedure: Endogenous thrombin potential (ETP) assays were performed as described (19). Briefly, plasma samples supplemented with CTI, TF, PCPS vesicles and coagulation factors were preincubated with the plasma at 37° C. Thrombin generation was initiated by addition of CaCl2 and Z-Gly-Gly-Arg-AMC in HBS/0.5% BSA. The final reaction mixture contained, 50% plasma, 0.2 pM TF, […] PCPS vesicles, 0.725 μM CTI, 0.5 mM Z-GGR-AMC and 7.6 mM CaCl2 in a total volume of 100 μL. In some experiments, 1.25 μg/ml anti-FVIII antibody was added to the plasma and ETP was determined after 1 hour of preincubation. Fluorescence was measured at excitation/emission wavelengths of […] using Gemini EM fluorescent plate reader (Molecular Devices). Fluorescence time course data were converted to nM thrombin as described (20). ETP, defined as the area under the curve (AUC) and the peak height were determined using Origin or GraphPad Prism software.

Balb/c mice = assay: Ex vivo whole blood aPTT after intravenous APC in Balb/c mice; design: species or system mouse
Procedure: Recombinant murine APC was administered intravenously to Balb/c mice by tail vein injection 2 minutes prior to retroorbital blood harvest in siliconized microcapillaries (75 μL) prefilled with 20 μL Sodium-Citrate (3.8%). Whole blood aPTT was performed immediately, whereby 50 μL of blood were mixed with 50 μL of aPTT reagent (APTT-XL, Pacific Hemostasis) and incubated at 37° C. for 3 minutes in the presence of FVa or buffer. Following addition of 25 μL of 130 mM CaCl2 in HBS, 0.5% BSA, the clotting time was recorded using an ST4 coagulometer (Diagnostica Stago).

[2] = system: Balb/c mice treated with anti-FVIII antibodies; assay: Tail clip bleeding assay in Balb/c mice treated with anti-FVIII antibodies; type: in vivo, mouse; conditions: 20 minutes
Procedure: Mice were anesthetized, placed on temperature controlled heating pads (37° C.), and the distal portion of the tail was cut at 1.5 mm diameter after which the tail was immersed in a predefined volume of 37° C. saline (0.9% NaCl) for 20 minutes. Blood loss was determined by the hemoglobin concentration in the saline solution after red cell lysis with 2% acetic acid and measured by absorbance at 405 nm. Using a hemoglobin standard derived from defined blood volumes, blood loss was calculated assuming a hematocrit of 46% and expressed in μL/g body weight. Groups of FVIII-deficient mice were injected intravenously (retro-orbital) within 2 minutes prior to tail cut with equal volumes ([…]) of sterile saline for injection (0.9%, Hospira Inc.), rhFVIII 200 units/kg FVIII (Xyntha®, Pfizer, NY, N.Y., USA) ^superFVa, rhFVIIa (NovoSeven®, NovoNordisk, Bagsvaerd, Denmark) or a combination of ^superFVa and rhFVIIa. All agents were diluted in sterile sodium chloride 0.9% for injection (Hospira Inc). […]
To further elucidate the efficiency of ^superFVa to reduce bleeding in presence of inhibitors for FVIII either alone or in combination with rhFVIIa, blood loss during a 20 minute bleeding period was determined in a tail transection model in Balb/c mice treated with anti-FVIII antibodies (0.25 mg/kg). […]

[3] = system: clot lysis time in NHP with anti-FVIII antibody; assay: Clot lysis assay (t-PA mediated) in normal human plasma with anti-FVIII antibody; type: biochemical
Procedure: FIGS. 28A and 28B show the synergistic effect of ^superFVa in combination with rhFVIIa on clot stabilization in NHP spiked with anti-FVIII antibody. Clot lysis time was determined by t-PA mediated fibrinolysis following thrombin induced fibrin clot formation in NHP spiked with anti-FVIII-antibody. (A) Increasing concentrations of rhFVIIa were added in the absence (open circle) or presence (open square) of ^superFVa (0.37 nM). (B) Increasing concentrations of ^superFVa were added in the absence (open circle) or presence (open square) of rhFVIIa (0.37 nM). Clot lysis time of NHP without inhibitors in the absence (open upward triangle) or presence of CPI (open downward triangle) represent control experiments. Normal human plasma; NHP. Carboxypeptidase inhibitor from potato tubers; CPI. Error bars represent standard error of the mean (n≥3).
Clot stability was studied as t-PA induced clot lysis time in NHP with anti-FVIII antibodies (GMA8015) at 10 μg/mL, as well as in FVIIIdP. The concentration of antibody was based on maximal shortening of the clot lysis time from approximately 105 min to 75 min following antibody titration (data not shown). The clot lysis time in the presence of antibody (10 μg/mL) was similar to the clot lysis time in the presence of CPI, which was used as control since it causes suppression of Thrombin Activatable Fibrinolysis Inhibitor (TAFI) activation. […]

In the case of “^superFVa: engineered APC-resistant FVa variant (SEQ ID NO:4): R306Q, R506Q, R679Q, Cys609-Cys1691 disulfide, S2183A, B-domain deleted”, the “increase in ETP” value [1] is reported as roughly 2.5 fold, the “increase in peak height” value [1] is reported as roughly 2.5 fold and the “effect on whole blood aPTT clotting times” value (Balb/c mice; 1 nM added to whole blood after iv APC 0.5 mg/kg) is reported as “significantly normalized aPTT clotting times”. For the same substance, the “mean whole blood aPTT” value (Balb/c mice; FVa variant added ex vivo to whole blood drawn after APC 0.5 mg/kg injection) was 30 s, the blood loss ([2]; ^superFVa 10 U/kg) was 19.47 µL/g and the blood loss ([2]; ^superFVa 40 U/kg) was 9.97 µL/g. The “concentration at which clot lysis times returned to normal” value ([3]; factor alone, NHP with anti-FVIII antibody) was 3.33 nM and the “concentration showing enhancement of clot lysis time” value ([3]; factor individually, 10 μg/ml anti-FVIII antibody) was 2 to 5 µg/mL.
